In patent publication US20150374658A1, “COMPOSITION COMPRISING LICORICIDINE” (ANALYTICON DISCOVERY GMBH, priority 2012, published 2015):
In brackets after ≈: the same amount, converted by molar mass.

What was measured:
[1] = system: Corynebacterium xerosis DSM 20743 (ATCC 373); assay: Classic assay, planktonic growth (OD580); format: cell-based; conditions: read-out: IC50, planktonic growth
Experimental: (§1) Corynebaterium xerosis is usually characterized as a rod-like gram positive bacterium. Under laboratory conditions (96 well plates) it takes ˜24 hours until Corynebaterium xerosis reaches stationary growth phase. Within this period planktonic growth can be quantified by spectroscopic means and a biofilm can be detected and quantified by standard crystal violet incorporation (c.f. O'Toole & Kolter, 1998, Mol. Microbiol. 28(3), 449-461). Planktonic growth denotes growth of non-adherent cells in the bulk liquid whereas biofilm denotes growth of cells adherent to solid surfaces.
(§2) Routine susceptibility testing of C. xerosis in high throughput format was done by simultaneous addition of test compounds and inoculum (“classic assay”). Growth of untreated (i.e. no extracts or test compounds added, control) planktonic cells ceased 7 hours after inoculation, and decreased by 13% at 24 hours. Biofilm development reached maximum 10 hours upon inoculation and kept constant for the rest of the test period (30 hours).
(§3) Formation of planktonic and biofilm cells was determined 18-24 hours after inoculation, thus at a time when some planktonic cells lysed. […]
(§4) Effects of test compounds were evaluated by comparison of turbidity (optical density, OD580) and crystal violet staining (biofilm; CV580) of treated and untreated samples (control; 100%). […]

[2] = system: Corynebacterium xerosis DSM 20743 (ATCC 373); assay: Classic assay, biofilm formation (crystal violet, CV580); format: cell-based; conditions: read-out: IC50, biofilm growth mode
Experimental: as §1, §2, §3, §4

[3] = Stability assessment of licoricidine using different stabilizers (HPLC peak area, storage at 40° C.); format: physicochemical; conditions: HPLC UV 225 nm
Experimental: Five times 5 mg ethanolic extract (0.1%) were dissolved in 1.5 ml ethanol and 3.5 ml buffer pH 7. • To the first batch 20 mg citric acid (0.4%) were added as a stabilizer and the resulting batch was stored at 40° C. • To the second batch 50 mg citric acid (1.0%) were added as a stabilizer and the resulting batch was stored at 40° C. • To the third batch 20 mg ascorbic acid (0.4%) were added as a stabilizer and the resulting batch was stored at 40° C. • To the fourth batch 50 mg ascorbic acid (1.0%) were added as a stabilizer and the resulting batch was stored at 40° C. • The fifth batch was stored as a reference at −18° C.
30 mg lipophilic extract were dissolved in 30 ml safflower oil at 80° C.
The obtained solution was split into three batches: • To the first batch 10 mg/ml ascorbic acid palmitate were added as a stabilizer and the resulting batch was stored at 40° C. • To the second batch 10 mg/ml BHA (Butylhydroxyanisol) were added as a stabilizer and the resulting batch was stored at 40° C. • The third batch was stored as a reference at −18° C.
Dissolve 120 mg lipophilic extract in 30 ml safflower oil at 80° C.
Split in tree (3) batches: • Add to the first batch 10 mg/ml ascorbic acid palmitate as a stabilizer and store at 40° C. • Add to the second batch 10 mg/ml BHA (Butylhydroxyanisol) as a stabilizer and store at 40° C. • Freeze the third batch as a reference at −18° C.
• Add to 10 ml maceration oil 100 mg ascorbic acid palmitate as a stabilizer and store at 40° C. • Add to 10 ml maceration oil 100 mg BHA (Butylhydroxyanisol) as a stabilizer and store at 40° C. • Freeze 10 ml maceration oil as a reference at −18° C.
0.5 ml of the respective oil prepared according to any one of examples 5.1 to 5.4 was extracted with 3 ml methanole/water (9:1), centrifugated and the supernatant was used for the analysis.
• Column: Kromasil C18, 125×4 mm with pre-column • Detection: UV (225 nm) • Mobile Phase: A: water with 5 mM ammoniumformiate and 0.1% formic acid; • B: acetonitrile/methanol=1:1, 5 mM ammoniumformiate and 0.1% formic acid • Gradient: from 60% B to 80% B in 30 min • Flow: 0.8 ml/min • The retention time of the reference peak (licoricidine) is 16.9 (±0.2) min.

## Oc1cc(Cl)ccc1Oc1ccc(Cl)cc1Cl [Triclosan, 5-chloro-2-(2,4-dichlorophenoxy)-phenol, reference compound]
[1]
  IC50: 1.7 µg/mL (≈ 5.87 µM)
[2]
  IC50: 0.6 µg/mL (≈ 2.07 µM)

## COc1c(CC=C(C)C)c(O)cc2c1C[C@H](c1ccc(O)c(CC=C(C)C)c1O)CO2 [licoricidine]
[2]; serial dilutions, classic assay
  IC50: 4.3 µg/mL (≈ 10.1 µM)
[3]; aqueous solution (buffer pH 7 in addition of 30% ethanol) with 0.1% ethanolic extract and 1% citric acid, eight (8) weeks storage at 40° C.
  decrease of the peak area of licoricidine: lower than 20%
[3]; maceration oil with addition of 1% BHA, twelve (12) weeks storage at 40° C.
  decrease of the peak area of licoricidine: lower than 20%
[3]; safflower oil with 0.1% lipophilic extract, 1% BHA, twelve (12) weeks storage at 40° C.
  decrease of the peak area of licoricidine: lower than 20%
[3]; safflower oil with 0.4% lipophilic extract, 1% BHA, twelve (12) weeks storage at 40° C.
  decrease of the peak area of licoricidine: lower than 20%
